“Also recorded” adds a separate entry of the source. Ends that are not written are not given here.
Legend:
[1] = system: patients with heart failure; conditions: intravenous infusion, hemodynamic monitoring; cited from earlier work
[2] = system: mice with diastolic heart failure and controls; assay: subcutaneous infusion of relaxin in mice with diastolic dysfunction; assay type: in vivo
Protocol: The present inventors have therefore used an animal model for testing the treatment for DHF and of a stiffened heart muscle having insufficient relaxation and distensibility. The table below summarizes data obtained in mice with a type of diastolic heart failure as compared with controls. The subcutaneous infusion of isolated porcine relaxin over 12 weeks in mice (50 μg porcine relaxin/kg/d) decreased end-diastolic pressure and, consequently, improved E/A ratio, a functional parameter indicating the quality of ventricular filling. The subcutaneous infusion of relaxin was obtained by implanting in the neck portion of the mice a membrane capsule releasing continuously porcine relaxin.

RXFP1 = target: T1, RXFP1 (Homo sapiens, UniProt Q9HBX9); assay: cAMP reporter gene assay in HEK-293T cells stably expressing RXFP1; assay type: cell-based; conditions: in words
T1 construct: expressed in transfected cells; host or cells: HEK-293T cells stably transfected with RXFP1
T1 sequence (Q9HBX9 1-757): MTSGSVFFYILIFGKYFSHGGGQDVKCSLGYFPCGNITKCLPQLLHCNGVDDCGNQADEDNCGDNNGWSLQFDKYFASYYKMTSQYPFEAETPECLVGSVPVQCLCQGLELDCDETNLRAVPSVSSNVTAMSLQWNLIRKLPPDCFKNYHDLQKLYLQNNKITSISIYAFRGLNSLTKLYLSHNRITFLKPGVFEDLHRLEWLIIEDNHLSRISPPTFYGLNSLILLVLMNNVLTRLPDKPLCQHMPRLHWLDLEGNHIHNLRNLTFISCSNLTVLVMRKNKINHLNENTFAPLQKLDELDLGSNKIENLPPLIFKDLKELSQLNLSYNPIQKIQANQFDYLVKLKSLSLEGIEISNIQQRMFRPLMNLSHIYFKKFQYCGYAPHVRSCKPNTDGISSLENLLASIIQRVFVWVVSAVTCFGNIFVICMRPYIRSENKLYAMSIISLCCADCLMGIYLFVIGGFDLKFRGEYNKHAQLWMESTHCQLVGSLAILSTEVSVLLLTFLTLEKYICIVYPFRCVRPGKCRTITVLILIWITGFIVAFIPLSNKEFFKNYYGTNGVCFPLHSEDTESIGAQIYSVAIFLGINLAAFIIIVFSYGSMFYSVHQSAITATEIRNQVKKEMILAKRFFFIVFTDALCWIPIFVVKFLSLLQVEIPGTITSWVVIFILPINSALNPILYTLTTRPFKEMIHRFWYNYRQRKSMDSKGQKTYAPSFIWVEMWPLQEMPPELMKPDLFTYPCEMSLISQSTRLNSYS
Protocol: Stimulation of the RXFP1 receptor results in the activation of adenylate cyclase and therefore in an increase in cAMP. […] Each concentration point was performed in triplicate and peptides were tested in at least three independent experiments. Data were analyzed with GraphPad Prism 4.0 (GraphPad Software, San Diego, Calif., USA), and a nonlinear regression sigmoidal dose-response (variable slope) model was used to plot curves and calculate pEC50 values.

[3] = control mice, 50 μg/kg/d s.c. infusion, 12 weeks, mean ± SEM
[4] = mice with diastolic dysfunction, 50 μg/kg/d s.c. infusion, 12 weeks, mean ± SEM

In the case of recombinant human relaxin-2 [rhRlx], the cardiac index [1] is given as “trends toward increases” and the pulmonary wedge pressure [1] is given as “decreases”.

With “porcine relaxin (Relaxin B chain QSTNDFIKACGRELVRLWVEICGSVSWGRTAL; Relaxin A chain RMTLSEKCCQVGCIRKDIARLC; not fully specified; ends and bridges not checked; UniProt P01348 25-56; P01348 161-182, looked up) [isolated porcine relaxin, released continuously from an implanted membrane capsule]” the E/A ratio [2, 3] was 2.4 ± 0.2, the “LVEDP, left ventricular end-diastolic pressure” value [2, 3] was 5.2 ± 0.5 mm Hg and the “LVSP, left ventricular systolic pressure” value [2, 3] was 109 ± 10 mm Hg. For the same compound, the “effect on heart function in controls” value ([2]; control mice, in words) was “no pharmaceutical effects were noted”, the E/A ratio ([2]; mice with diastolic dysfunction, 50 μg/kg/d s.c. over 12 weeks, in words) was “improved; also recorded: dramatically shifted back to the normal range” and the E/A ratio [2, 4] was 2.0 ± 0.2. For the same compound, the “LVEDP, left ventricular end-diastolic pressure” value [2, 4] was 7.0 ± 0.6 mm Hg, the “LVSP, left ventricular systolic pressure” value [2, 4] was 111 ± 12 mm Hg and the end-diastolic pressure ([2]; mice, 50 μg/kg/d s.c. over 12 weeks, in words) was “decreased”.

In the case of `CC[C@H](C)[C@@H]1NC(=O)[C@H](C)NC(=O)[C@H]([C@@H](C)CC)NC(=O)[C@H](CCC(N)=O)NC(=O)[C@H](C)NC(=O)[C@H](CCCNC(=N)N)NC(=O)[C@H](C(C)C)NC(=O)[C@H](CC(C)C)NC(=O)[C@H](CCC(=O)O)NC(=O)[C@H](CCCNC(=N)N)NC(=O)CNC(=O)[C@@H](NC(=O)[C@H](CC(C)C)NC(=O)[C@H](CCCCN)NC(=O)[C@@H](NC(=O)[C@@H](NC(=O)[C@H](CCC(=O)O)NC(=O)[C@H](CCC(=O)O)NC(=O)[C@H](CCSC)NC(=O)[C@H](Cc2c[nH]c3ccccc23)NC(=O)[C@@H](N)CO)C(C)C)[C@@H](C)CC)CSSC[C@@H]2NC(=O)[C@@H](NC(=O)[C@H](CCCCN)NC(=O)[C@H](CC(N)=O)NC(=O)[C@H](C)NC(=O)[C@H](CC(C)C)NC(=O)[C@H](C)NC(=O)[C@H](CO)NC(=O)[C@H](Cc3ccc(O)cc3)NC(=O)[C@H](CC(C)C)NC(=O)[C@@H]3CCC(=O)N3)CSSC[C@H](NC(=O)CNC(=O)[C@H](C(C)C)NC(=O)[C@H](Cc3c[nH]cn3)NC2=O)C(=O)N[C@@H]([C@@H](C)O)C(=O)N[C@@H](CCCCN)C(=O)N[C@@H](CCCNC(=N)N)C(=O)N[C@@H](CO)C(=O)N[C@@H](CC(C)C)C(=O)N[C@@H](C)C(=O)N[C@@H](CCCNC(=N)N)C(=O)N[C@@H](Cc2ccccc2)C(=O)N[C@H](C(=O)O)CSSC[C@@H](C(=O)NCC(=O)N[C@@H](CCSC)C(=O)N[C@@H](CO)C(=O)N[C@H](C(=O)N[C@@H](Cc2c[nH]c3ccccc23)C(=O)N[C@@H](CO)C(=O)O)[C@@H](C)O)NC1=O` [-Asp-shRlx], the “biological activity of the by-product” value (RXFP1) is reported as “biologically fully active”.

Reference: patent US10799561B2, “Method for increasing cardiac inflow by administering a compound that binds RXFP1” (Relaxera Pharmazeutische Gesellschaft GmbH & Co. KG, priority 2014, dated 2020)
